{"source": "patent US7521432B2", "about": "“Compositions and methods for identifying agents which regulate chromosomal stability, gene activation and aging” (priority 2000, dated 2009)", "key": {"[1]": {"tested_on": "human HeLa cell extracts", "test": "O-acetyl-ADP ribose utilization by enzymes from human HeLa cell extracts", "format": "in vitro ADME", "settings": "HeLa cell extract vs buffer control, time points up to 3 hrs, HPLC", "method": "P/CAF [^3H]-monoacetylation of H3 peptide. The histone acetyltransferase P/CAF was used to monoacetylate H3 peptide on Lysine 14 (12). P/CAF (0.175 μM) was mixed with [^3H]-acetyl CoA (33.3 μM, 1.88 Ci/mmol) and H3 peptide (175 μM) for 20 min at 25° C. prior to quenching with TFA to 1%. Mono [^3H]-acetylated H3 peptide was separated from unmodified H3 by HPLC analysis as described above. MALDI/ESI Mass Spectrometry Analyses. MALDI mass spectrometry was performed (Oregon State University, Environmental Health Sciences Center) on a custom-built reflector time-of-flight mass spectrometer equipped with a two-stage delayed extraction source. […] Every mass spectrum was recorded as the sum of 20 consecutive spectra, each produced by a single pulse of photons. […] The amount of [^3H]-AcLys14 H3 peptide and [^3H]-O-acetyl ADP ribose was determined by liquid scintillation counting of these species separated on reverse phase HPLC. […] Protein concentrations of supernatants were determined by the method of Bradford. […]\nTo provide evidence for the existence of human cellular proteins/enzymes that are capable of binding and catalyzing the conversion or decomposition of O-acetyl-ADP ribose, human HeLa cell extracts were generated and the ability of proteins within the extract to catalyze the decomposition of O-acetyl-ADP ribose was assessed. […]"}, "[2]": {"tested_on": "Asterina miniata immature oocytes", "test": "Microinjection into immature starfish oocytes, oocyte maturation (GVBD, polar body extrusion)", "format": "cell-based", "settings": "for effect on oocyte maturation as assessed by GVBD and polar body extrusion: microinjected, compared to control injections, text summary", "method": "Asterina miniata gametes were collected and microinjections were performed as described previously (Carroll et al., 1999). Briefly, quantitative microinjection of Asterina miniata oocytes was performed at 16° C., using mercury-filled micropipets (Hiramoto, 1962; Kiehart, 1982; and see the information available at http://egg/uchc.edu/injection), allowing injection of precisely calibrated picoliter volumes into the oocytes and blastomeres. Injection volumes were 3% of the total cellular volume (for oocytes, 93 pL and for blastomeres, 47 pL). Buffer alone, purified O-acetylated ADP ribose or recombinant protein was injected into immature oocytes or one blastomere of a two cell stage embryo to a final concentration in the cytoplasm as indicated in the figure legends and Tables. 1-methyl adenine was from Sigma and was used at 10 μM.\nMicro-injection assays were performed in starfish and sea urchin ooctyes. Historically echinoderm development has been a biochemically tractable and well-defined system to assess biological function of pruteins, bio-active compounds and for detailed analyses of the cell cycle. This system is attractive for its amenability to quantitative microinjection assays, cell cycle analyses, biochemical fractionation and microscopic imaging of eggs and early embryos. Initially, we hypothesized that if O-acetyl-ADP ribose produced by SIR2 was involved in SIR2's gene silencing ability, then micro-injection of O-acetyl-ADP ribose into a maturing oocyte should give rise to a phenotypic effect on the developing animal, perhaps through perturbations in normal gene expression patterns. Immature oocytes were micro-injected with HPLC-purified O-acetyl-ADP ribose or with a buffer control. The oocytes were allowed to mature by the addition of 1-methyladenine and assessed for developmental alterations.\nAsterina miniata immature oocytes were microinjected with the amounts of O-acetyl ADP ribose in PBS. The maturation hormone 1-methyladenine was added (10 μM) 25-30 minutes post-injection. Oocytes were monitored for GVBD and polar body extrusion. […] The number of oocytes per treatment is given. Combined results of 3 separate experiments (3 batches of O-acetyl ADP ribose).\nAsterina miniata immature oocytes were microinjected with the given enzymes in PBS. The maturation hormone 1-methyladenine was added (10 μM) 25-30 minutes post-injection. Oocytes were monitored for GVBD and polar body extrusion. […] The number of oocytes per treatment (n) is given. Data are from four separate batches of oocytes. All oocytes for a given treatment responded in the same way unless indicated otherwise (e.g. see 200 nM HST2 injection)."}, "[3]": {"settings": "0.2 mg/ml (0.32 mM) in cytoplasm"}, "[4]": {"settings": "0.5 mg/ml (0.8 mM) in cytoplasm"}, "[5]": {"settings": "1.0 mg/ml (1.6 mM) in cytoplasm"}}}
{"substance": "O-acetyl-ADP ribose", "values": [{"measurement": "conversion/consumption of O-acetyl-ADP ribose by cell extract", "setting": "[1]", "result": "convert O-acetyl-ADP ribose to a distinct, but as yet unidentified species"}, {"measurement": "conversion/consumption of O-acetyl-ADP ribose by cell extract", "setting": "[1]; listed as O-acetyl ADP ribose", "result": "capable of consuming O-acetyl ADP ribose"}, {"measurement": "no effect (oocytes)", "setting": "[2]; 0.01 mg/ml (0.016 mM) in cytoplasm", "result": "8/8"}, {"measurement": "no effect (oocytes)", "setting": "[2]; 0.1 mg/ml (0.16 mM) in cytoplasm", "result": "16/16"}, {"measurement": "compete block (oocytes)", "setting": "[2]; [3]", "result": "1/8"}, {"measurement": "no effect (oocytes)", "setting": "[2]; [3]", "result": "7/8"}, {"measurement": "1-2 hr delay (oocytes)", "setting": "[2]; [4]", "result": "10/16"}, {"measurement": "compete block (oocytes)", "setting": "[2]; [4]", "result": "6/16"}, {"measurement": "1-2 hr delay (oocytes)", "setting": "[2]; [5]", "result": "1/23"}, {"measurement": "compete block (oocytes)", "setting": "[2]; [5]", "result": "22/23"}, {"measurement": "compete block (oocytes)", "setting": "[2]; 1.7 mg/ml (3 mM) in cytoplasm", "result": "6/6"}, {"measurement": "immediate death (oocytes)", "setting": "[2]; 3.0 mg/ml (5 mM) in cytoplasm", "result": "1/3"}, {"measurement": "no effect (oocytes)", "setting": "[2]; 3.0 mg/ml (5 mM) in cytoplasm, 1-methyladenine 10 μM", "result": "2/3"}, {"measurement": "immediate death (oocytes)", "setting": "[2]; 10 mg/ml (16 mM) in cytoplasm", "result": "2/2"}, {"measurement": "effect on apoptosis of unfertilized oocyte", "setting": "[2]; apoptosis normally occurs after ~24 hrs if not fertilized", "result": "delayed apoptosis"}, {"measurement": "GV breakdown, polar body extrusion and apoptosis of injected oocytes", "setting": "[2]; final 1 mg/mL, images 3 and 24 hr post hormone treatment, FIG. 9", "result": "did not undergo GV breakdown or polar body extrusion, nor did they undergo apoptosis"}, {"measurement": "effect on oocyte maturation as assessed by GVBD and polar body extrusion", "setting": "[2]", "result": "a delay in germinal vesicle breakdown (GVBD), or a complete block in oocyte maturation"}, {"measurement": "effect on oocyte maturation as assessed by GVBD and polar body extrusion", "setting": "[2]; listed as O-acetyl ADP ribose", "result": "block oocyte maturation"}, {"measurement": "concentration below which no effect was observed (dose-dependency)", "setting": "[2]; oocyte maturation", "result": "below 0.32 mM"}]}
